Measured values: US8541420B2, “Ketolide compounds having antimicrobial activity” (priority 2009, dated 2013)

Experiments:
S. pneumoniae = test: MIC by standard CLSI agar dilution method, macrolide sensitive and resistant S. pneumoniae; format: cell-based; settings: 18 hrs at 37° C.; for MIC S. pneumoniae Ery Susc. (49619): strain Ery Susc. (49619); for MIC S. pneumoniae HL-ermB (3773): strain HL-ermB (3773), HL is High level resistance; for MIC S. pneumoniae ermB (786): strain ermB (786); for MIC S. pneumoniae mefA (772): strain mefA (772)
Protocol: (§1) The antibacterial activities of ketolide compounds of invention were evaluated by determining the minimal inhibitory concentration (MIC) according to standard CLSI agar dilution method. The media used for preculture and main culture were Tryptic Soya broth (Difco) and Mueller Hinton medium (Difco), respectively. The Mueller Hinton agar was supplemented with 5% sheep blood for streptococci and pneumococci, and with haemoglobin as well as NAD (nicotinamide adenine dinucleotide) for Haemophilus influenzae, respectively. Overnight cultures were diluted with buffered saline (pH 7.2) to the final cell density of 5×10^6-10^7 CFU/ml, and each bacterial suspension was applied with a replicator (Denley's multipoint inoculator, UK) onto a series of Mueller-Hinton agar plates containing antibacterial agents at various concentrations. Final inoculum was approximately 10^4 CFU/spot. The plates were incubated for 18 hrs at 37° C. The MIC was defined as the lowest concentration of an antibacterial agent that inhibits the development of visible microbial growth on agar.

S. pyogenes = test: MIC by standard CLSI agar dilution method, macrolide sensitive and resistant S. pyogenes; format: cell-based; design: MIC S. pyogenes Ery Susc. (801) / MIC S. pyogenes HLermB (3530): unit not given beside the values; settings: 18 hrs at 37° C.; for MIC S. pyogenes Ery Susc. (801): strain Ery Susc. (801); for MIC S. pyogenes HLermB (3530): strain HLermB (3530), HL is High level resistance; for MIC S. pyogenes ermTR (810/806): strain ermTR (810/806); for MIC S. pyogenes mefA (806/763): strain mefA (806/763)
Protocol: as §1

| Compound | MIC S. pneumoniae Ery Susc. (49619) (S. pneumoniae) | MIC S. pneumoniae HL-ermB (3773) (S. pneumoniae) | MIC S. pneumoniae ermB (786) (S. pneumoniae) | MIC S. pneumoniae mefA (772) (S. pneumoniae) | MIC S. pyogenes Ery Susc. (801) (S. pyogenes) | MIC S. pyogenes HLermB (3530) (S. pyogenes) | MIC S. pyogenes ermTR (810/806) (S. pyogenes) | MIC S. pyogenes mefA (806/763) (S. pyogenes) |
| --- | --- | --- | --- | --- | --- | --- | --- | --- |
| CC[C@H]1OC(=O)[C@H](C)C(=O)[C@H](C)[C@@H](O[C@@H]2O[C@H](C)C[C@H](N(C)C)[C@H]2O)[C@](C)(OC)C[C@@H](C)C(=O)[C@H](C)[C@H]2N(CCCCn3cnc(-c4cccnc4)c3)C(=O)O[C@]12C [Telithromycin, reference compound] | 0.007 | 4.0 | 0.5 | 1.0 | 0.03 | 16.0 | 0.03 | 0.06 |
| (11S,21R)-3-Decladinosyl-11,12-dideoxy-6-O-methyl-3-oxo-12,11-{oxycarbonyl-[E-amino-(2-(pyrimidin-2-yl)-1,3,4-thiadiazol-5-yl-methyl)oxy-imino-methylene]}-erythromycin A [Example 2] | 0.007 | 1.0 | 0.06 | 0.25 | 0.007 | 0.25 | 0.015 | 0.06 |
| (11S, 21R)-3-Decladinosyl-11,12-dideoxy-6-O-methyl-3-oxo-12,11-{oxycarbonyl-[E-amino-(2-(pyridin-2-yl)-1,3,4-thiadiazol-5-yl-methyl)oxy-imino-methylene]}-erythromycin A [Example 1] | 0.007 | 1.0 | 0.06 | 0.06 | 0.015 | 0.5 | 0.015 | 0.06 |
